For assay [1], the system named is HCV replicon (Replicon 1a). The experiment in a line: anti-HCV activity in Huh-7 cell line harboring a HCV replicon (Replicon 1a). Conditions: for inhibition at 1 µM: Hepatitis C virus, Huh-7, 72 h. Format: cell-based. A general note: Replicon systems follow genome replication, usually without infectious particles.
Assay [2] concerns the target cyclophilin A (Homo sapiens, UniProt P62937). The experiment in a line: Cyclophilin A TR-FRET competitive binding assay. Conditions: IC50 ranges, competition with CsA-Cy5 for His-tagged CypA, two-hour incubation. The procedure:
Cyclophilin A TR-FRET Competitive Binding Assay
Inhibitor potency was measured using a competitive binding assay with a time-resolved fluorescence resonance energy transfer (TR-FRET) readout. […] An IC50 value was calculated using a four-parameter logistic fit.
On the technique in general: TR-FRET usually uses a lanthanide donor and a delayed reading to cut background.

The mark [3] stands for this setting: read-out: Replicon 1a % inhibition at 1 μM.
The mark [4] stands for this setting: read-out: Replicon 1a % inhibition at 1 μM, 1 μM, human hepatoma Huh-7 HCV replicon cells, 3 days, luciferase readout.

The structures appear in SMILES notation. Like-named read-outs stand apart in the source and are kept apart here. Where only a bound is given, the exact number is not on record here.

cyclophilin A, sequence (P62937 whole entry, species assumed): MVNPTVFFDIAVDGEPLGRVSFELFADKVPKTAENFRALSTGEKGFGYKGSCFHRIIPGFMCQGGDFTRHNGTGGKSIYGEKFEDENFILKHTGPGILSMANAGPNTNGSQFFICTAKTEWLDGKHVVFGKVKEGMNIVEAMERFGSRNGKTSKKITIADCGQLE

In general, inhibition refers to the share of the control response that was lost under treatment. On to `CO[C@@H]1/C=C/COc2cccc(c2)[C@@H](C(C)C)NC(=O)[C@@H]2CCCN(N2)C(=O)[C@H](C)NC(=O)[C@H](C(C)C)NC(=O)[C@@H]1C` [Compound 37, (E)-(2R,5S,11 S,14S,17R,18R)-2,14-Diisopropyl-18-methoxy-11,17-dimethyl-22-oxa-3,9,12,15,28-pentaaza-tricyclo[21.3.1.1*5,9*]octacosa-1 (27),19,23,25-tetraene-4,10,13,16-tetraone], for which the inhibition at 1 µM in assay [1] (setting [3]) was 76%. The same compound yielded an IC50 in assay [2] (TR-FRET) of less than 100 nM.
Consider `CC1/C=C/c2cc3cc(ccc3cn2)[C@@H](C)OC(=O)[C@@H]2CCCN(N2)C(=O)[C@H](C)NC(=O)[C@H](C(C)C)NC1=O` (stereo partly drawn) [Compound 20], for which, in assay [1] (setting [4]), the inhibition at 1 µM is 99%. The IC50 in assay [2] (read-out: TR-FRET) is less than 100 nM.
Taken in the same sequence, the figures for `CC(C)[C@@H]1NC(=O)C2(/C=C/c3ccc4ccc(nc4c3)[C@@H](C)OC(=O)[C@@H]3CCCN(N3)C(=O)[C@H](C)NC1=O)CCCC2` [Compound 154] were 100% and less than 100 nM.
For `CC(C)[C@@H]1NC(=O)C2(/C=C/c3ccc4ccc(nc4c3)[C@@H](C)OC(=O)[C@@H]3CCCN(N3)C(=O)[C@H](C)NC1=O)CCN(CC(F)(F)F)CC2` [Compound 136], in that order: 100% and less than 100 nM.
As to `CC(C)[C@@H]1NC(=O)C(C)(C)COc2cc3cc(ccc3cn2)[C@@H](C)OC(=O)[C@@H]2CCCN(N2)C(=O)[C@H](C)NC1=O` (single isomer, unassigned) [Compound 68], in assay [1] (setting [4]), the inhibition at 1 µM turned out to be 91%. Besides, the IC50 in assay [2] (read-out: TR-FRET) was less than 100 nM.
Taken in the same sequence, the figures for `Cc1cc2nc3cc(ccc13)/C=C/C(C)(C)C(=O)N[C@@H](C(C)C)C(=O)N[C@@H](C)C(=O)N1CCC[C@H](N1)C(=O)O[C@@H]2C` [Compound 144] were 100% and less than 100 nM.
Regarding `CC(C)[C@@H]1NC(=O)C(C)(C)/C=C/c2ccc3cnc(nc3c2)[C@@H](C)OC(=O)[C@@H]2CCCN(N2)C(=O)[C@H](C)NC1=O` [Compound 96], the inhibition at 1 µM in assay [1] (setting [4]) is 100%. The IC50 in assay [2] (read-out: TR-FRET) is less than 100 nM.
As for `CC(C)[C@@H]1NC(=O)[C@]2(CCc3ccc4ccc(nc4c3)[C@@H](C)OC(=O)[C@@H]3CCCN(N3)C(=O)[C@H](C)NC1=O)CC[C@H](O)CC2` [Compound 161], in assay [1], the “Replicon 1a % inhibition at 1 μM” value came to 95%. For the same compound, the IC50 in assay [2] (read-out: TR-FRET) is less than 100 nM.
Turning to `CC(C)[C@@H]1NC(=O)C/C=C/c2cc3cc(ccc3cn2)[C@@H](C)NC(=O)[C@@H]2CCCN(N2)C(=O)[C@H](C)NC1=O` [Compound 11], the inhibition at 1 µM in assay [1] (setting [4]) came out at 6%. Moreover, the IC50 in assay [2] (read-out: TR-FRET) was less than 100 nM.
As to `CO[C@@H]1/C=C/c2cc3cc(ccc3cn2)[C@@H](C)OC(=O)[C@@]2(C)CCCN(N2)C(=O)[C@H](C)NC(=O)C(C(C)C)NC(=O)[C@@H]1C` (stereo partly drawn) [Compound 33], in assay [1] (setting [4]), the inhibition at 1 µM amounted to 14%. In assay [2] (read-out: TR-FRET), the IC50 fell in the range of 1000 to 10000 nM.
For `CC(C)[C@@H]1NC(=O)CCCCCCc2cc3cc(ccc3cn2)[C@@H](C)OC(=O)[C@@H]2CCCN(N2)C(=O)[C@H](C)NC1=O` [Compound 64], in that order: 35% and 101 to 1000 nM.
For `CC(C)[C@@H]1NC(=O)C2(/C=C/c3ccc4ccc(nc4c3)[C@@H](C)OC(=O)[C@@H]3CCCN(N3)C(=O)[C@H](C)NC1=O)CCNCC2` [Compound 127], in that order: 2% and less than 100 nM.
For `CC(C)[C@@H]1NC(=O)C(C)(C)/C=C/c2ccc3cnc(cc3c2)[C@@H](C)OC(=O)[C@@H]2CCCN(N2)C(=O)[C@H](C)NC1=O` [Compound 17], in that order: 100% and less than 100 nM.
Regarding `CC(C)[C@@H]1NC(=O)C2(/C=C/c3ccc4ccc(nc4c3)[C@@H](C)OC(=O)[C@@H]3CCCN(N3)C(=O)[C@H](C)NC1=O)CCN(C(=O)N1CCCC1)CC2` [Compound 133], the inhibition at 1 µM in assay [1] (setting [4]) stood at 98%. Moreover, the IC50 in assay [2] (read-out: TR-FRET) is less than 100 nM.
Taken in the same sequence, the figures for `CC(C)[C@@H]1NC(=O)C(C)(C)/C=C/c2ccc3ccc(nc3c2)[C@@H](C)OC(=O)[C@@H]2CCCN(N2)C(=O)[C@H](COCC2(C)COC2)NC1=O` [Compound 114] were 99% and less than 100 nM.
As for `CC(C)[C@@H]1NC(=O)[C@@H](C)/C=C/c2ccc3ccc(nc3c2)[C@@H](C)OC(=O)[C@@H]2CCCN(N2)C(=O)[C@H](C)NC1=O` [Compound 27], the inhibition at 1 µM in assay [1] (setting [3]) amounted to 100%. Moreover, the IC50 in assay [2] (TR-FRET) was less than 100 nM.
For `CO[C@@H]1CC/C=C/c2ccc3c(c2)[C@@H](CC3)N(C)C(=O)[C@@H]2CCCN(N2)C(=O)[C@H](C)NC(=O)[C@H](C(C)C)NC(=O)[C@@H]1C` [Compound 25], in that order: 71% and 101 to 1000 nM.
For the compound `CC(C)[C@@H]1NC(=O)COc2ccc(cc2)-c2cccc(n2)[C@@H](C)OC(=O)[C@@H]2CCCN(N2)C(=O)[C@H](C)NC1=O` [Compound 41], in assay [1] (setting [4]), the inhibition at 1 µM is 96%. The IC50 in assay [2] (read-out: TR-FRET) is less than 100 nM.
Turning to `CC(C)[C@@H]1NC(=O)[C@]2(/C=C/c3ccc4ccc(nc4c3)[C@@H](C)OC(=O)[C@@H]3CCCN(N3)C(=O)[C@H](C)NC1=O)CC[C@H](O)CC2` [Compound 158], in assay [1] (setting [4]), the inhibition at 1 µM is 100%. The IC50 in assay [2] (read-out: TR-FRET) is less than 100 nM.
On to `CC(C)[C@@H]1NC(=O)[C@H](C)C/C=C/c2cc3cc(ccc3cn2)[C@@H](C)OC(=O)[C@@H]2CCCN(N2)C(=O)[C@H](C)NC1=O` [Compound 21], for which the inhibition at 1 µM in assay [1] (setting [4]) is 93%. Besides, the IC50 in assay [2] (read-out: TR-FRET) is less than 100 nM.
On to `CC(C)[C@@H]1NC(=O)[C@@](C)(COCC[Si](C)(C)C)/C=C/c2ccc3ccc(nc3c2)[C@@H](C)OC(=O)[C@@H]2CCCN(N2)C(=O)[C@H](C)NC1=O` [Compound 77], for which the inhibition at 1 µM in assay [1] (setting [3]) stood at 99%. This compound gave an IC50 in assay [2] (TR-FRET) of less than 100 nM.
For `C[C@@H]1NC(=O)[C@H](Cc2cccnc2)NC(=O)C(C)(C)/C=C/c2cc3cc(ccc3cn2)[C@@H](C)OC(=O)[C@@H]2CCCN(N2)C1=O` [Compound 55], the inhibition at 1 µM in assay [1] (setting [4]) came to 76%. Further, in assay [2] (read-out: TR-FRET), the IC50 lay in the range of 101 to 1000 nM.
On to `COC1CCC=Cc2cccc(c2)C2CCCCN2C(=O)C2CCCN(N2)C(=O)C(C)NC(=O)C(C(C)C)NC(=O)C1C` (single isomer, unassigned) [Compound 29], for which the “Replicon 1a % inhibition at 1 μM” value in assay [1] (1 μM, human hepatoma Huh-7 HCV replicon cells, 3 days, luciferase readout) turned out to be 28%. Further, the IC50 in assay [2] (read-out: TR-FRET) lay in the range of 1000 to 10000 nM.
Regarding `CC(C)[C@@H]1NC(=O)CCn2cc(cn2)-c2cccc(c2)[C@@H](C)OC(=O)[C@@H]2CCCN(N2)C(=O)[C@H](C)NC1=O` [Compound 42], the inhibition at 1 µM in assay [1] (setting [4]) was found to be 16%. Further, in assay [2] (read-out: TR-FRET), the IC50 was 101 to 1000 nM.
For `CC(C)[C@@H]1NC(=O)[C@@]2(/C=C/c3ccc4ccc(nc4c3)[C@@H](C)OC(=O)[C@@H]3CCCN(N3)C(=O)[C@H](C)NC1=O)CCCN2C(=O)OC(C)(C)C` [Compound 155], in that order: 100% and less than 100 nM.
Taken in the same sequence, the figures for `CC(C)[C@@H]1NC(=O)[C@H](C)Oc2ccc(cc2)-c2cccc(c2)[C@@H](C)OC(=O)[C@@H]2CCCN(N2)C(=O)[C@H](C)NC1=O` [Compound 39] were 98% and less than 100 nM.
`CC(C)[C@@H]1NC(=O)[C@@](C)(CO)/C=C/c2ccc3ccc(nc3c2)[C@@H](C)OC(=O)[C@@H]2CCCN(N2)C(=O)[C@H](C)NC1=O` [Compound 78]: in assay [1] (setting [3]), the inhibition at 1 µM was determined as 99%. Further, in assay [2] (TR-FRET), the IC50 is less than 100 nM.
Regarding `Cc1cc2cc3nc(ccc13)[C@@H](C)OC(=O)C1CCCN(N1)C(=O)[C@@H](C)NC(=O)[C@H](C(C)C)NC(=O)C(C)(C)/C=C/2` (stereo partly drawn) [Compound 148], in assay [1] (setting [4]), the inhibition at 1 µM worked out at 100%. The IC50 in assay [2] (read-out: TR-FRET) was less than 100 nM.
For `CC(C)[C@@H]1NC(=O)[C@@]2(/C=C/c3ccc4ccc(nc4c3)[C@@H](C)OC(=O)[C@@H]3CCCN(N3)C(=O)[C@H](C)NC1=O)CCCN2S(C)(=O)=O` [Compound 156], in that order: 87% and less than 100 nM.
For `CC(C)[C@@H]1NC(=O)[C@H](C)CCCc2cc3cc(ccc3cn2)[C@@H](C)OC(=O)[C@@H]2CCCN(N2)C(=O)[C@H](C)NC1=O` [Compound 46], in that order: 90% and less than 100 nM.
For `CC(C)[C@@H]1NC(=O)C(C)(C)/C=C/c2ccc3ccc(nc3c2)[C@@H](C)NC(=O)[C@@H]2CCCN(N2)C(=O)[C@H](C)NC1=O` [Compound 111], in that order: 87% and less than 100 nM.
As to `CC(C)[C@@H]1NC(=O)COc2ccc(cc2)-c2cccc(c2)[C@@H](C)OC(=O)[C@@H]2CCCN(N2)C(=O)[C@H](C)NC1=O` [Compound 38], in assay [1] (setting [4]), the inhibition at 1 µM was 98%. Moreover, the IC50 in assay [2] (read-out: TR-FRET) is less than 100 nM.
Regarding `CC(C)[C@@H]1NC(=O)C(C)(C)/C=C/c2ccc3ccc(nc3c2)[C@@H](C)OC(=O)[C@@H]2CCCN(N2)C(=O)[C@H](CC(=O)OC(C)(C)C)NC1=O` [Compound 92], in assay [1] (setting [4]), the inhibition at 1 µM amounted to 100%. Besides, the IC50 in assay [2] (read-out: TR-FRET) was less than 100 nM.
Turning to `CC(C)[C@@H]1NC(=O)C(C)(C)/C=C/c2ccc3ccc(nc3c2)[C@@H](C)OC(=O)[C@@H]2CCCN(N2)C(=O)C(CC2CCOCC2)NC1=O` (single isomer, unassigned) [Compound 113], in assay [1] (setting [4]), the inhibition at 1 µM is 13%. The IC50 in assay [2] (read-out: TR-FRET) is 101 to 1000 nM.
As for `CC(C)[C@@H]1NC(=O)[C@]2(/C=C/c3ccc4ccc(nc4c3)[C@@H](C)OC(=O)[C@@H]3CCCN(N3)C(=O)[C@H](C)NC1=O)CC[C@@H](O)CC2` [Compound 160], the inhibition at 1 µM in assay [1] (setting [4]) turned out to be 98%. Besides, the IC50 in assay [2] (read-out: TR-FRET) was less than 100 nM.
As for `CC(C)[C@@H]1NC(=O)C(C)(C)/C=C/c2ccc3ccc(nc3c2)[C@@H](C)OC(=O)[C@@H]2CCCN(N2)C(=O)[C@H](CC(=O)N2CCCCC2)NC1=O` [Compound 98], in assay [1] (setting [3]), the inhibition at 1 µM was found to be 95%. For the same compound, the IC50 in assay [2] (read-out: TR-FRET) was less than 100 nM.

The values are drawn from patent publication US9512175B2, “Macrocyclic inhibitors of flaviviridae viruses” (Gilead Sciences, Inc., priority 2012, dated 2016).
